In patent US9872874B2 (Cyclacel Limited, priority 2012, dated 2018):

Columns and labels:
colon cancer = conditions: model of colon cancer, compared with gemcitabine or 5-FU; cited from earlier work
[1] = phase I, single agent; cited from earlier work
[2] = Phase I study of sequential sapacitabine and seliciclib, Schedule 2: dose escalation, MTD, DLT and adverse events; assay type: in vivo; conditions: Schedule 2: sapacitabine b.i.d. days 1-7, seliciclib b.i.d. days 8-10, 11 days of rest; 27 patients
Experimental: Phase I Study of Sequential Sapacitabine and Seliciclib in Patients with Advanced Solid Tumors
(§1) At least 3 patients were evaluated per dose level.

H2AX staining = assay: Skin biopsies to assess DNA damage (H2AX staining) in the Phase I study; assay type: in vivo, patients
Experimental: as §1

A549 cells = conditions: twenty-four hour treatment; cited from earlier work

| Compound | increasing survival and preventing spread of colon cancer metastases to the liver (colon cancer) | dose limiting toxicity [1] | tolerability in humans [1] | MTD and recommended phase II dose (RP2D) [2] [mg b.i.d.] | increase in H2AX staining post-sapacitabine (H2AX staining; day 8 vs pre-treatment, n=16, P=0.007) [fold] | expression of key genes involved in HR (BRCA1 and RAD50) and NHEJ (Ku80, DNA-PK and NHEJ1) (A549 cells) | further increase in H2AX staining post-seliciclib (H2AX staining; day 11 vs day 8, n=12, P=0.069) [fold] |
| --- | --- | --- | --- | --- | --- | --- | --- |
| CCCCCCCCCCCCCCCC(=O)Nc1ccn(C2O[C@H](CO)[C@@H](O)[C@@H]2C#N)c(=O)n1 (stereo partly drawn) [sapacitabine, 1-(2-C-cyano-2-dioxy-β-D-arabino-pentofuranosyl)-N^4-palmitoyl cytosine] | superior to either gemcitabine or 5-FU | myelosuppression | well tolerated | 50 | 2.3 | – | – |
| CC[C@H](CO)Nc1nc(NCc2ccccc2)c2ncn(C(C)C)c2n1 [seliciclib, 6-benzylamino-2-[(R)-1-ethyl-2-hydroxyethylamino]-9-isopropylpurine] | – | – | – | 1200 | – | significant downregulation | 0.58 |
